From patent US9980943B2, “Methods of treating muscular dystrophy” (BOARD OF REGENTS OF THE NEVADA SYSTEM OF HIGHER EDUCATION, …, priority 2013, dated 2018)

Experiments:
Type in all cases: cell-based, mouse
[1] = system: β-galactosidase in CMV-LacZ C2C12 myoblasts; test: CMV-LacZ secondary screen in C2C12 myoblasts (β-Gal stabilizing assay); conditions: CMV-LacZ C2C12 myoblasts
In short: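 Dose-response runs at 0.5–40 μM (0.5, 1, 5, 10, 20, 40 μM; N=2 per point) used a clonal C2C12 line carrying CMV-LacZ. Cells were assayed as myoblasts or as differentiated myotubes, and β-galactosidase levels were read with the FDG fluorogenic substrate.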

[2] = system: α7 integrin (LacZ reporter in α7+/LacZ myotubes); test: Myotube α7 integrin FDG assay (Burkin assay in myotubes, 96-well); conditions: myotubes
[3] = system: β-galactosidase in CMV-LacZ C2C12 myotubes; test: CMV-LacZ secondary screen in C2C12 myotubes (β-Gal stabilizing assay); conditions: C2C12 CMV-LacZ myotubes, fold relative to DMSO
In short: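 β-Gal level was the read-out, measured in a clonal C2C12 line expressing LacZ from a CMV promoter. Dose-response curves used six concentrations, 0.5 μM up to 40 μM, with duplicate points.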

[4] = system: α7 integrin (LacZ reporter in α7βgal+/− myoblasts); test: Myoblast α7+/LacZ integrin FDG assay (Burkin assay in myoblasts, 96-well); conditions: α7+/LacZ myoblasts, 96-well

Structure (SMILES)	CMV-LACZ in Myoblasts (β-galactosidase activity relative to DMSO) ([1]; 0.5 uM)	CMV-LACZ in Myoblasts (β-galactosidase activity relative to DMSO) ([1]; 1 uM)	CMV-LACZ in Myoblasts (β-galactosidase activity relative to DMSO) ([1]; 5 uM)	CMV-LACZ in Myoblasts (β-galactosidase activity relative to DMSO) ([1]; 10 uM)	CMV-LACZ in Myoblasts (β-galactosidase activity relative to DMSO) ([1]; 20 uM)	CMV-LACZ in Myoblasts (β-galactosidase activity relative to DMSO) ([1]; 40 uM)	Burkin Assay in Myotubes, α7 integrin LacZ reporter signal relative to DMSO ([2]; 0.5 uM)	Burkin Assay in Myotubes, α7 integrin LacZ reporter signal relative to DMSO ([2]; 1 uM)	Burkin Assay in Myotubes, α7 integrin LacZ reporter signal relative to DMSO ([2]; 5 uM)	Burkin Assay in Myotubes, α7 integrin LacZ reporter signal relative to DMSO ([2]; 10 uM)	Burkin Assay in Myotubes, α7 integrin LacZ reporter signal relative to DMSO ([2]; 20 uM)	Burkin Assay in Myotubes, α7 integrin LacZ reporter signal relative to DMSO ([2]; 40 uM)	CMV-LACZ in Myotubes, signal relative to DMSO ([3]; 0.5 uM)	CMV-LACZ in Myotubes, signal relative to DMSO ([3]; 1 uM)	CMV-LACZ in Myotubes, signal relative to DMSO ([3]; 5 uM)	CMV-LACZ in Myotubes, signal relative to DMSO ([3]; 10 uM)	CMV-LACZ in Myotubes, signal relative to DMSO ([3]; 20 uM)	CMV-LACZ in Myotubes, signal relative to DMSO ([3]; 40 uM)	Burkin Assay in Myoblasts, signal relative to DMSO ([4]; 0.5 uM)	Burkin Assay in Myoblasts, signal relative to DMSO ([4]; 1 uM)	further results
CC(C)(C)c1ccc(C(=O)OCC(=O)Nc2sc3c(c2C#N)CCC3)cc1 [MLS000392555-01]	0.8954	0.7638	0.9342	0.9799	0.9559	1.2007	0.9647	0.9664	1.105	0.9741	0.935	0.9301	1.0257	0.9676	1.0094	0.8568	1.1537	0.9326	1.2055	1.101	Burkin Assay in Myoblasts, signal relative to DMSO ([4]; 5 uM): 1.3; Burkin Assay in Myoblasts, signal relative to DMSO ([4]; 10 uM): 0.9734; Burkin Assay in Myoblasts, signal relative to DMSO ([4]; 20 uM): 1.314; Burkin Assay in Myoblasts, signal relative to DMSO ([4]; 40 uM): 1.226
CCOc1ccccc1NC(=O)COC(=O)CNS(=O)(=O)c1ccc(C)cc1 [MLS000393567-01]	1.2117	1.1373	0.6593	0.8148	1.0175	1.1319	0.8882	0.9953	0.9065	0.8857	0.8607	0.9237	1.0400	0.9524	0.9322	0.9858	1.0160	0.9100	1.032	1.051	Burkin Assay in Myoblasts, signal relative to DMSO ([4]; 5 uM): 0.9724; Burkin Assay in Myoblasts, signal relative to DMSO ([4]; 10 uM): 0.9325; Burkin Assay in Myoblasts, signal relative to DMSO ([4]; 20 uM): 0.8334; Burkin Assay in Myoblasts, signal relative to DMSO ([4]; 40 uM): 0.8705
Cc1cccc2c(N=Nc3ccc(S(=O)(=O)Nc4ccc(Cl)cc4)cc3[N+](=O)[O-])c(O)[nH]c12 [MLS000393762-01]	0.9560	0.9351	1.0114	1.0198	0.3793	0.4467	0.9402	0.925	0.9795	1.007	0.7705	0.7046	0.8653	0.9326	1.0005	1.0049	1.0800	1.0578	0.9738	0.9428	Burkin Assay in Myoblasts, signal relative to DMSO ([4]; 5 uM): 0.7799; Burkin Assay in Myoblasts, signal relative to DMSO ([4]; 10 uM): 0.6957; Burkin Assay in Myoblasts, signal relative to DMSO ([4]; 20 uM): 0.5961; Burkin Assay in Myoblasts, signal relative to DMSO ([4]; 40 uM): 0.4696
Cc1ccc(NS(=O)(=O)c2cccc(C(=O)O)c2)cc1S(=O)(=O)N1CCOCC1 [MLS000393966-01]	0.9249	1.0625	1.1744	0.8087	1.0411	0.9156	0.8547	0.8436	1.304	0.9546	1.233	1.015	0.9358	1.3516	0.8958	1.1877	1.0378	1.1167	0.9495	0.9626	Burkin Assay in Myoblasts, signal relative to DMSO ([4]; 5 uM): 1.793; Burkin Assay in Myoblasts, signal relative to DMSO ([4]; 10 uM): 1.076; Burkin Assay in Myoblasts, signal relative to DMSO ([4]; 20 uM): 0.9904; Burkin Assay in Myoblasts, signal relative to DMSO ([4]; 40 uM): 0.965
CCOc1ccc(Br)cc1S(=O)(=O)Nc1ccc(C(=O)Nc2ccccc2OC)cc1 [MLS000418650-01]	0.9237	0.9533	1.0080	0.8344	1.1523	1.1323	1.086	1.004	1.032	0.9654	0.7581	0.7593	1.0086	1.2819	1.0198	1.1746	1.1180	1.2260	0.9156	1.069	Burkin Assay in Myoblasts, signal relative to DMSO ([4]; 5 uM): 1.13; Burkin Assay in Myoblasts, signal relative to DMSO ([4]; 10 uM): 0.9633; Burkin Assay in Myoblasts, signal relative to DMSO ([4]; 20 uM): 0.9104; Burkin Assay in Myoblasts, signal relative to DMSO ([4]; 40 uM): 0.9445
Cc1[nH]c2ccc(F)cc2c1CCN(Cc1ccco1)C(=S)NC(C)(C)C [MLS000419286-01]	0.9960	0.7960	0.9701	0.8022	0.9368	0.6295	0.9511	0.8124	0.879	0.948	0.457	0.193	0.9990	1.1867	1.0268	1.1581	0.8530	0.7830	1.166	1.002	Burkin Assay in Myoblasts, signal relative to DMSO ([4]; 5 uM): 0.9174; Burkin Assay in Myoblasts, signal relative to DMSO ([4]; 10 uM): 0.8951; Burkin Assay in Myoblasts, signal relative to DMSO ([4]; 20 uM): 0.7945; Burkin Assay in Myoblasts, signal relative to DMSO ([4]; 40 uM): 0.7199
